Assay results published in patent publication US8835632B2, “Methods to increase the photostability of dyes” (The University of North Carolina at Chapel Hill, priority 2007, dated 2014).

Columns and labels:
Type in all cases: physicochemical
[1] = Absorption and fluorescence spectra, extinction coefficient, fluorescence quantum yield
Method: Absorption spectra were recorded on a Hewlett-Packard 8453 diode array UV-Vis spectrophotometer (Agilent Technologies, Inc., Santa Clara, Calif.), and fluorescence measurements were taken on a SPEX® Fluorolog 2 spectrofluorometer (HORIBA Jobin Yvon, Inc., Edison, N.J.). Melting points are not corrected. NMR spectra were obtained on a Varian Mercury 300 MHz (Varian, Inc., Palo Alto, Calif.) or on a Bruker 300 MHz DRX 300 spectrometer (Bruker Biospin Corp., Billerica, Mass.). Mass spectra were obtained on a Hewlett-Packard 1100 high-performance liquid chromatograph equipped with an 1100 mass selective detector (MS-ESI) (Agilent Technologies, Inc.).
With decreasing solvent polarity, the absorption maximum of dyes 1a-b, 2a-d shifted to longer wavelengths, and the intensity of the transition increased (Table 10, FIG. 11).
The SCRF/VSCRF predicted emission energies and the solute dipole moments before and after the vertical emission process are given in Table 16. The dipole moments of AI-BA(4) and AI-SO(4) are further decreased on the S1 surface after geometry relaxation (in MeOH solution), and then increased during the S1→S0 transition. This observation is consistent with the blue shifts of the emission bands of AI-BA(4) and AI-SO(4) with increasing solvent polarity from C6H6 to MeOH. By contrast, the dipole moment of I-SO further decreases after S1 state geometry relaxation, and then decreases during the vertical emission process. This observation also is in agreement with the red shift of the I-SO emission band with increasing solvent polarity from C6H6 to MeOH. Similarly to the absorption case, a negligible red shift (ΔEem=0.017 eV) was predicted for the emission band of I-TBA with increasing solvent polarity. A small red shift from C6H6 to DMF (with ΔEem=0.020 eV, or Δλmax=6 nm) is observed. The nearly equal emission energy observed in C6H6 and MeOH can again result in the explicit interactions between the solute and solvent molecules.

[2] = Relative rate of reaction with chemically generated singlet oxygen in DMSO; conditions: 2.5 mM, 1O2 from 1,4-dimethylnaphtalene-1,4-endoperoxide
Method: The bleaching rates for the dyes differed by two orders of magnitude. The relative rate constants kr (rel) for product formation during reaction with singlet oxygen were measured by comparing the percent conversions for dyes dissolved in DMSO containing a fixed amount of ^1O2 (2.5 mM solutions; ^1O2 generated by decomposition of 1,4-dimethylnaphtalene-1,4-endoperoxide). The rates were generally higher for dyes with a polar ground state (1a, 2a, 2b, 2d) than for the dyes with their ground state at the “cyanine limit” (3, 4). […] Olefins without allylic hydrogens react with singlet oxygen to form dioxetanes. Dioxetanes are unstable and decompose, to form two carbonyl compounds.

[3] = Photobleaching under constant illumination from a halogen tungsten lamp filtered through glass; conditions: MeOH
From the text: The photostability of dyes can be important for applications in living cells. The mechanism of photobleaching for merocyanines of varying structure has been examined See Toutchkine et al., J. Am. Chem. Soc. 125:4132-4145 (2003). The photostability of the presently disclosed dyes was characterized by exposing them to constant illumination from a halogen tungsten lamp filtered through glass. This broad spectrum light source provided essentially equal intensity throughout the spectral range where the dyes absorb and where they would be irradiated in vivo (about 600 nm to about 650 nm).

Cn1c(O)c(/C=C/C=C(\C#N)c2cc[n+]3c(c2)C(C)(C)c2ccccc2-3)c(=O)n(C)c1=O [AI-BA-CN]
Absorbance λmax ([1]; Butanol (BuOH)): 600 nm
Emission λmax ([1]; Butanol (BuOH)): 620 nm
Extinction coefficient ε ([1]; Butanol (BuOH)): 189000
Fluorescence quantum yield Φ ([1]; Butanol (BuOH)): 0.25
Absorbance λmax ([1]; Methanol (MeOH)): 589 nm
Emission λmax ([1]; Methanol (MeOH)): 613 nm
Extinction coefficient ε ([1]; Methanol (MeOH)): 180000
Fluorescence quantum yield Φ ([1]; Methanol (MeOH)): 0.05
Absorbance λmax ([1]; Water-Methanol (H2O—MeOH)): 578 nm
Emission λmax ([1]; Water-Methanol (H2O—MeOH)): 607 nm
Extinction coefficient ε ([1]; Water-Methanol (H2O—MeOH)): 123000
Fluorescence quantum yield Φ ([1]; Water-Methanol (H2O—MeOH)): 0.15

Cn1c(O)c(/C=C/C=C/c2cc[n+]3c(c2)C(C)(C)c2ccccc2-3)c(=O)n(C)c1=O [AI-BA]
Absorbance λmax ([1]; Butanol (BuOH)): 615 nm
Emission λmax ([1]; Butanol (BuOH)): 654 nm
Extinction coefficient ε ([1]; Butanol (BuOH)): 154000
Fluorescence quantum yield Φ ([1]; Butanol (BuOH)): 0.29
Absorbance λmax ([1]; Methanol (MeOH)): 585 nm
Emission λmax ([1]; Methanol (MeOH)): 618 nm
Extinction coefficient ε ([1]; Methanol (MeOH)): 83000
Fluorescence quantum yield Φ ([1]; Methanol (MeOH)): 0.52

Cn1c([O-])c(/C=C/C=C/c2cc[n+]3c(c2)C(C)(C)c2ccccc2-3)c(=O)n(C)c1=O [AI-BA]
kr(rel) (relative rate constants for product formation during reaction with singlet oxygen produced chemically) [2]: 25.6
kph * 10^6 (absolute rate of photobleaching) [3]: 68 s^−1
kph(rel) (relative rate of photobleaching) ([3]; with respect to standard I-TBA in MeOH): 200
Absorption energy Eabs Exp ([1]; C6H6): 1.873 eV
Emission energy Eem Exp ([1]; C6H6): 1.851 eV
Absorption energy Eabs Exp ([1]; MeOH): 2.120 eV
Emission energy Eem Exp ([1]; MeOH): 2.006 eV
Observed absorption (ε) ([1]; Table 10, BuOH): (154000)
Observed absorption λmax ([1]; Table 10, BuOH): 615 nm
Observed absorption (ε) ([1]; Table 10, C6H6): ±201000)
Observed absorption λmax ([1]; Table 10, C6H6): 662 nm
Observed absorption (ε) ([1]; Table 10, CH2Cl2): (224000)
Observed absorption λmax ([1]; Table 10, CH2Cl2): 647 nm
Observed absorption (ε) ([1]; Table 10, CH3CN): (141000)
Observed absorption λmax ([1]; Table 10, CH3CN): 621 nm
Observed absorption (ε) ([1]; Table 10, DMF): (146000)
Observed absorption λmax ([1]; Table 10, DMF): 625 nm
Observed absorption (ε) ([1]; Table 10, DMSO): (122000)
Observed absorption λmax ([1]; Table 10, DMSO): 617 nm
Observed absorption (ε) ([1]; Table 10, EtOH): (104000)
Observed absorption λmax ([1]; Table 10, EtOH): 604 nm
Observed absorption (ε) ([1]; Table 10, MeOH): (83000)
Observed absorption λmax ([1]; Table 10, MeOH): 585 nm
Observed absorption (ε) ([1]; Table 10, OcOH): (143000)
Observed absorption λmax ([1]; Table 10, OcOH): 628 nm
Observed absorption (ε) ([1]; Table 10, i-PrOH): (132000)
Observed absorption λmax ([1]; Table 10, i-PrOH): 614 nm
Absorption Exp wavelength ([1]; Table 12, C6H6): 662 nm
Absorption Exp wavelength ([1]; Table 12, MeOH): 585 nm
Observed emission (Φ) ([1]; Table 15, BuOH): 0.29
Observed emission λmax ([1]; Table 15, BuOH): 654 nm
Observed emission (Φ) ([1]; Table 15, C6H6): 0.01
Observed emission λmax ([1]; Table 15, C6H6): 670 nm
Observed emission (Φ) ([1]; Table 15, CH2Cl2): 0.03
Observed emission λmax ([1]; Table 15, CH2Cl2): 664 nm
Observed emission (Φ) ([1]; Table 15, CH3CN): 0.05
Observed emission λmax ([1]; Table 15, CH3CN): 652 nm
Observed emission (Φ) ([1]; Table 15, DMF): 0.26
Observed emission λmax ([1]; Table 15, DMF): 658 nm
Observed emission (Φ) ([1]; Table 15, DMSO): 0.23
Observed emission λmax ([1]; Table 15, DMSO): 657 nm
Observed emission (Φ) ([1]; Table 15, EtOH): 0.19
Observed emission λmax ([1]; Table 15, EtOH): 651 nm
Observed emission (Φ) ([1]; Table 15, MeOH): 0.52
Observed emission λmax ([1]; Table 15, MeOH): 618 nm
Observed emission (Φ) ([1]; Table 15, OcOH): 0.64
Observed emission λmax ([1]; Table 15, OcOH): 656 nm
Observed emission (Φ) ([1]; Table 15, i-PrOH): 0.22
Observed emission λmax ([1]; Table 15, i-PrOH): 652 nm
Eabs(MeOH)-Eabs(C6H6) Exp ([1]; blue shift of absorption band C6H6 to MeOH): 0.247 eV
